According to ChEMBL document CHEMBL5390290, “Discovery of Anti-SARS-CoV-2 Nsp9 Binders from Natural Products by a Native Mass Spectrometry Approach” (J Nat Prod, 2023):
Calls of active or inactive are those of the source. The calls are words filed in the database; no cut-off is given here.

Assays:
[1] = molecular target: Replicase polyprotein 1ab (Severe acute respiratory syndrome coronavirus 2) (UniProt P0DTD1); experiment: Binding affinity to recombinant SARS-CoV-2 Nsp9 at 10 to 50 uM by Mass spectrometry analysis; conditions: dose 10-50 µM
[2] = molecular target: Replicase polyprotein 1ab (Severe acute respiratory syndrome coronavirus 2) (UniProt P0DTD1); experiment: Binding affinity to recombinant SARS-CoV-2 Nsp9 at 50 uM by Mass spectrometry analysis
[3] = molecular target: Replicase polyprotein 1ab (Severe acute respiratory syndrome coronavirus 2) (UniProt P0DTD1); experiment: Binding affinity to recombinant SARS-CoV-2 Nsp9 at 50 uM by Mass spectrometry analysis relative to control
[4] = molecular target: Replicase polyprotein 1ab (Severe acute respiratory syndrome coronavirus 2) (UniProt P0DTD1); experiment: Binding affinity to recombinant SARS-CoV-2 Nsp9 at 10 uM by Mass spectrometry analysis relative to control
[5] = molecular target: Replicase polyprotein 1ab (Severe acute respiratory syndrome coronavirus 2, UniProt P0DTD1); experiment: Binding affinity to recombinant SARS-CoV-2 Nsp9 assessed as dissociation constant by Mass spectrometry analysis
[6] = molecular target: Replicase polyprotein 1ab (Severe acute respiratory syndrome coronavirus 2) (UniProt P0DTD1); experiment: Binding affinity to SARS-CoV-2 Nsp9 at 25 uM by LC-MS/MS analysis relative to control

| SMILES | Activity [1] | Activity [3] | Activity [4] | also measured |
| --- | --- | --- | --- | --- |
| C=C1C[C@]23C4C5N(C)C[C@]6(C)C[C@H](O)C[C@@]5([C@@H]2[C@H](OC(=O)/C(C)=C/C)[C@H](OC(=O)/C(C)=C/C)[C@H]14)[C@]6(O)[C@@H](O)[C@@H]3O (stereo partly drawn) | inactive |  |  |  |
| C=C1C[C@]23C4C5N(C)C[C@]6(C)C[C@H](O)C[C@@]5([C@@H]2[C@H](OC(=O)/C(C)=C/CO)[C@H](OC(=O)/C(C)=C/C)[C@H]14)[C@]6(O)[C@@H](O)[C@@H]3O (stereo partly drawn) | inactive |  |  |  |
| C=C1C[C@]23C[C@@]1(O)CC[C@H]2[C@@]12C=C[C@H](O)[C@](C)(C(=O)O1)[C@H]2[C@@H]3C(=O)O |  |  |  | Activity [2]: Active |
| C=C1C(=O)[C@]23[C@@H](O)[C@H]1CC[C@H]2[C@@]12COC3(O)C[C@@H]1C(C)(C)CC[C@@H]2O |  | 0.04% | 0% |  |
| CC(C)[C@]1(O)C(OC(=O)c2ccc[nH]2)[C@@]2(O)[C@@]3(C)C[C@]4(O)O[C@@]5([C@H](O)[C@@H](C)CC[C@]35O)[C@@]2(O)[C@@]14C (stereo partly drawn) |  |  |  | Kd [5]: 48 µM; Activity [6]: Active |
| C=C1C(=O)[C@]23[C@H](O)[C@@H]1CC[C@H]2[C@@]12C(O)[C@@]3(O)C(=O)[C@@H]1C(C)(C)CC[C@@H]2O (stereo partly drawn) |  | 0.38% | 0.05% |  |
| C=C1[C@@H]2C[C@@]3([C@@H]1O)[C@@H](CC2=O)[C@@]12[C@@H]4[C@@H]3C[C@@H]1[C@@](C)(CC[C@@H]2O)CN4CC | inactive |  |  |  |
| C=C1C(=O)[C@]23[C@H](O)[C@@H]1[C@@H](O)C[C@H]2[C@]12CCCC(C)(C)[C@H]1[C@H](O)[C@@]3(O)OC2 | inactive | 0% | 0% |  |
| C=C1C(=O)[C@@]23[C@H]4O[C@H]5O[C@]2(O)[C@@H](O)[C@@H]2C(C)(C)CC[C@H](O)[C@]52[C@@H]3CC[C@H]14 |  | 1% | 0.27% |  |
| C=C1C(=O)[C@]23[C@H](O)[C@@H]1C[C@@H](O)[C@H]2[C@]12CCCC(C)(C)[C@H]1[C@H](O)[C@@]3(O)OC2 |  | 0.89% | 0.15% |  |
| C=C1C[C@]23C4C5N(C)C[C@]6(C)C[C@H](O)C[C@@]5([C@@H]2[C@H](OC(=O)c2ccc(O)cc2)[C@H](OC(=O)/C(C)=C/C)[C@H]14)[C@]6(O)[C@@H](O)[C@@H]3O (stereo partly drawn) | inactive |  |  |  |
| C=C1C(=O)[C@]23[C@H](O)[C@@H]1CC[C@H]2[C@@]12CO[C@@]3(O)[C@@H](O)[C@@H]1C(C)(C)CC[C@@H]2O |  | 1% | 0.71% | Activity [6]: Active |
| C=C1[C@H]2CC[C@H]3[C@@]45CO[C@](O)([C@@H](O)[C@@H]4C(C)(C)CC[C@@H]5O)[C@@]3([C@@H]1O)[C@@H]2O |  | 16% | 2% |  |
